Data from US9121007B2, “Treatment of bone-related cancers using placental stem cells” (ANTHROGENESIS CORPORATIN, priority 2010, dated 2015).

Test system: osteoclast precursors
Experiment: Osteoclastogenesis from osteoclast precursors with lenalidomide
Format: cell-based
Protocol: FIG. 15. Therefore, there is a possible synergistic or additive anti-osteoclastogenic effect of PDACs and lenalidomide at concentration of between about 0.1 μM to 1 μM.

SMILES: Nc1cccc2c1CN(C1CCC(=O)NC1=O)C2=O (centres unmarked) [lenalidomide, 3-(4-amino-1-oxo 1,3-dihydro-2H-isoindol-2-yl) piperidine-2,6-dione]
- number of osteoclasts that differentiated from the osteoclast precursors (0.1 μM or 1 μM lenalidomide with placental stem cells, vs placental stem cells or BM-MSC): further decrease the number of osteoclasts
- number of osteoclasts formed (lenalidomide alone at concentrations around 1 μM): steep decline in the number of osteoclasts formed
